pEC50: −log10 of the molar value. Active and inactive are the calls of the source. The calls are words filed in the database; no cut-off is given here.

Series [1] deals with PBMC. Description: Induction of proinflammatory cytokine release in human PBMC after 12 hrs. Type of series: cell-based.
Series [2] concerns PBMC. The experiment in a line: Induction of transcriptional signature of inflammatory gene expression in human PBMC cells after 2 hrs. Type of series: cell-based.
The species entered for series [3] is Oryctolagus cuniculus. Description: Adjuvantic activity in New Zealand White rabbit immunized with bovine alpha-lactalbumin on day 1, 15, and 28 assessed as anti-alpha-lactalbumin IgG level in serum at 100 ug measured on day 38 by ELISA. Type of series: functional, organism-based. On the technique in general: ELISA stands for enzyme-linked immunosorbent assay.

The subject of series [4] is PBMC. Description: Up-regulation of CXCL gene in human PBMC cells after 2 hrs. Type of series: cell-based.
Series [5] concerns the target T1, Toll-like receptor 8 (Homo sapiens) (UniProt Q9NR97).
T1 sequence (whole entry): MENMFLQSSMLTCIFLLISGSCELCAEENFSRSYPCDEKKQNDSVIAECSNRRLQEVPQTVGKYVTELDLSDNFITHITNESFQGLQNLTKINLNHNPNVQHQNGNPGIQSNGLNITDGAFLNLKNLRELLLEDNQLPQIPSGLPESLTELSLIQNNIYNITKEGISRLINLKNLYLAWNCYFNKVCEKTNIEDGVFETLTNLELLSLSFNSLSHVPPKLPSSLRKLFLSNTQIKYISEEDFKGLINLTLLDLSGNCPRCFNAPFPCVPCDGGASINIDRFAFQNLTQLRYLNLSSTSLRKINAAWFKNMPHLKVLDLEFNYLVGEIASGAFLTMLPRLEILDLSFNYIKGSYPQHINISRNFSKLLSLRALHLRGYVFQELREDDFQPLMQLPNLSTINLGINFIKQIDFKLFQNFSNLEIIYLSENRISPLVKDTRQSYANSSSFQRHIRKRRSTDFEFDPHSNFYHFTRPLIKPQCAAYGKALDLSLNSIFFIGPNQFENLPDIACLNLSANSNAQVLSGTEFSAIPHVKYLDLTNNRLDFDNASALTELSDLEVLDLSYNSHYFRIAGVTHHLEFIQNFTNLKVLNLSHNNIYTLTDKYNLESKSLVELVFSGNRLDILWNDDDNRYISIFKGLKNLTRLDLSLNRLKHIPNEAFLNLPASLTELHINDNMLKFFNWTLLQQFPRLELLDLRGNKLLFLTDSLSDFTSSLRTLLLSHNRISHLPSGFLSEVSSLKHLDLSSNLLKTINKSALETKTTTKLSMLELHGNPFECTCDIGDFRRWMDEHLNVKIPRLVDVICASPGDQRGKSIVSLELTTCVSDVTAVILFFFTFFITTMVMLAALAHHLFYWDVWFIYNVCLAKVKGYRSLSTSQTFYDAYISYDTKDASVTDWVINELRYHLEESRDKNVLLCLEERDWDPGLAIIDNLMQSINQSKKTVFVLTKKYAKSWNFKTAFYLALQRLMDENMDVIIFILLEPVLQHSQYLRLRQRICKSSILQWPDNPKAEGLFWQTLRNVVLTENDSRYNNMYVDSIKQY
Description: (§1) Agonist activity at human TLR8 expressed in HEK293 cells assessed as induction of NF-kappaB activity by measuring extracellular secreted alkaline phosphatase by HEK-blue reporter gene assay. Type of series: functional, cell-based. For orientation: Reporter assays use an easily measured gene product as a stand-in for the process of interest.

For series [6], the target named is T2, Toll-like receptor 8 (Homo sapiens, UniProt Q9NR97).
T2 sequence (Q9NR97 whole entry): T1 sequence (whole entry)
The series is described as §1. Type of series: functional, cell-based. The following applies: read-out: EC50.

The subject of series [7] is PBMC. Description: Up-regulation of CCL gene in human PBMC cells after 2 hrs. Type of series: cell-based.
In series [8] the target is T3, Toll-like receptor 9 (Homo sapiens) (UniProt Q9NR96).
T3 sequence (whole entry): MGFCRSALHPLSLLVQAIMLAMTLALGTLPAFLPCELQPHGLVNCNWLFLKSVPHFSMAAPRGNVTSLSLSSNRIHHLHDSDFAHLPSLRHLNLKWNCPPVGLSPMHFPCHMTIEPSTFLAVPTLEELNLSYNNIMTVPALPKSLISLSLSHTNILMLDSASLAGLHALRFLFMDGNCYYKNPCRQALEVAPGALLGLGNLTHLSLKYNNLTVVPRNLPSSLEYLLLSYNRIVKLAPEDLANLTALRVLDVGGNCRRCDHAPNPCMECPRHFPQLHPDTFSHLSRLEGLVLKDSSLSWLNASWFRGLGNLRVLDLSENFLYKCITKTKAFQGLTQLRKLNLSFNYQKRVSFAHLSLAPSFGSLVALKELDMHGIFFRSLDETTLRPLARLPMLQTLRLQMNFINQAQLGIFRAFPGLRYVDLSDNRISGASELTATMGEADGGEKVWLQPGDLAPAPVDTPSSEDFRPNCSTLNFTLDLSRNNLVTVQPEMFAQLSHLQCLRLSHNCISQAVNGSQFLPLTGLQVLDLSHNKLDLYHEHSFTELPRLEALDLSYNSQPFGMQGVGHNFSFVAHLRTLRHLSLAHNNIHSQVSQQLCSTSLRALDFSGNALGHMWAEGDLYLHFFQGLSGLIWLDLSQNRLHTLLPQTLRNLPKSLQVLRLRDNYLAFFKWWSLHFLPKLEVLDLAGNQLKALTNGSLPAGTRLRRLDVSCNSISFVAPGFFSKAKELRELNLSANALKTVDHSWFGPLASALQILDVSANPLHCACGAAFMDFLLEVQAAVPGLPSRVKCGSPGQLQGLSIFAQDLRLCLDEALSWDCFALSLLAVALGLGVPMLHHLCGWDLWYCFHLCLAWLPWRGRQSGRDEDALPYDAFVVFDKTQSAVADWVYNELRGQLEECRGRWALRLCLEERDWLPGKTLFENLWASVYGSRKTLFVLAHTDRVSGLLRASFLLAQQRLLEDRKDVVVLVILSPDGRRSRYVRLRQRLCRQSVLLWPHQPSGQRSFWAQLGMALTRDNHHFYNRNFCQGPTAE
Description: Agonist activity at human TLR9 expressed in HEK293 cells assessed as induction of NF-kappaB activity by measuring extracellular secreted alkaline phosphatase up to 250 uM by HEK-blue reporter gene assay. Type of series: functional, cell-based.

The target in series [9] is T1, Toll-like receptor 8 (Homo sapiens). Description: Agonist activity at human TLR8 expressed in HEK293 cells assessed as induction of NF-kappaB activity by measuring extracellular secreted alkaline phosphatase up to 250 uM by HEK-blue reporter gene assay. Type of series: functional, cell-based.
In series [10] the target is T4, Toll-like receptor 7 (Homo sapiens) (UniProt Q9NYK1).
T4 sequence (whole entry): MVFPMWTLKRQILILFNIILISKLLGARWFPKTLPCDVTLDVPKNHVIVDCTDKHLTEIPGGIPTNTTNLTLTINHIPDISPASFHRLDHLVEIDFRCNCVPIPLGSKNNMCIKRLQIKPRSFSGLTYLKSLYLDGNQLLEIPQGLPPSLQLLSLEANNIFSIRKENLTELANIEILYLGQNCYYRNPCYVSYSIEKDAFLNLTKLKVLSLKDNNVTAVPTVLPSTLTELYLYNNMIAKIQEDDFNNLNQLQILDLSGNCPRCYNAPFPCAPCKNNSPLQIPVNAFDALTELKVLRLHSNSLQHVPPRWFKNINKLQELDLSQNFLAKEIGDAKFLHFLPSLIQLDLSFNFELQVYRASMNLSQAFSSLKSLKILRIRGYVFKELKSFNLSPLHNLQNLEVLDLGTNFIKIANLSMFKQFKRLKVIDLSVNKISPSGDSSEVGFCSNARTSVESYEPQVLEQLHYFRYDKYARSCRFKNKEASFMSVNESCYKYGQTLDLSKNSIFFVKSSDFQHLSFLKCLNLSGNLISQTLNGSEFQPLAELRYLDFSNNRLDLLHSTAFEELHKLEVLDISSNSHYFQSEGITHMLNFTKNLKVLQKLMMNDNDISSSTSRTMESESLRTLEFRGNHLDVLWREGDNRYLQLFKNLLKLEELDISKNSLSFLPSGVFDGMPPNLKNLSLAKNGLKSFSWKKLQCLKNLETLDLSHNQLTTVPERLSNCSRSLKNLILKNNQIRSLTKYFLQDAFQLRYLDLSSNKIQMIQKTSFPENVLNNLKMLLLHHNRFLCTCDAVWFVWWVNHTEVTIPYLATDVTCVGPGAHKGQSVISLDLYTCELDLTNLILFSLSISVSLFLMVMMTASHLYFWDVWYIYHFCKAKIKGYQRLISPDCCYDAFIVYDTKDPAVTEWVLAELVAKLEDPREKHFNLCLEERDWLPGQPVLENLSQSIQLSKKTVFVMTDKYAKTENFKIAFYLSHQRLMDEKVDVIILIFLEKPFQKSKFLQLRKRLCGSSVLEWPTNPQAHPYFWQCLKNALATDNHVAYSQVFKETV
The experiment in a line: Agonist activity at human TLR7 expressed in HEK293 cells assessed as induction of NF-kappaB activity by measuring extracellular secreted alkaline phosphatase up to 250 uM by HEK-blue reporter gene assay. Type of series: functional, cell-based.

Series [11] has as its target Toll-like receptor 5 (Homo sapiens) (UniProt O60602). Description: Agonist activity at human TLR5 expressed in HEK293 cells assessed as induction of NF-kappaB activity by measuring extracellular secreted alkaline phosphatase up to 250 uM by HEK-blue reporter gene assay. Type of series: functional, cell-based.
The target in series [12] is Toll-like receptor 4 (Homo sapiens) (UniProt O00206). The experiment in a line: Agonist activity at human TLR4 expressed in HEK293 cells assessed as induction of NF-kappaB activity by measuring extracellular secreted alkaline phosphatase up to 250 uM by HEK-blue reporter gene assay. Type of series: functional, cell-based.
Sequence of Toll-like receptor 4 (Homo sapiens) (O00206 whole entry): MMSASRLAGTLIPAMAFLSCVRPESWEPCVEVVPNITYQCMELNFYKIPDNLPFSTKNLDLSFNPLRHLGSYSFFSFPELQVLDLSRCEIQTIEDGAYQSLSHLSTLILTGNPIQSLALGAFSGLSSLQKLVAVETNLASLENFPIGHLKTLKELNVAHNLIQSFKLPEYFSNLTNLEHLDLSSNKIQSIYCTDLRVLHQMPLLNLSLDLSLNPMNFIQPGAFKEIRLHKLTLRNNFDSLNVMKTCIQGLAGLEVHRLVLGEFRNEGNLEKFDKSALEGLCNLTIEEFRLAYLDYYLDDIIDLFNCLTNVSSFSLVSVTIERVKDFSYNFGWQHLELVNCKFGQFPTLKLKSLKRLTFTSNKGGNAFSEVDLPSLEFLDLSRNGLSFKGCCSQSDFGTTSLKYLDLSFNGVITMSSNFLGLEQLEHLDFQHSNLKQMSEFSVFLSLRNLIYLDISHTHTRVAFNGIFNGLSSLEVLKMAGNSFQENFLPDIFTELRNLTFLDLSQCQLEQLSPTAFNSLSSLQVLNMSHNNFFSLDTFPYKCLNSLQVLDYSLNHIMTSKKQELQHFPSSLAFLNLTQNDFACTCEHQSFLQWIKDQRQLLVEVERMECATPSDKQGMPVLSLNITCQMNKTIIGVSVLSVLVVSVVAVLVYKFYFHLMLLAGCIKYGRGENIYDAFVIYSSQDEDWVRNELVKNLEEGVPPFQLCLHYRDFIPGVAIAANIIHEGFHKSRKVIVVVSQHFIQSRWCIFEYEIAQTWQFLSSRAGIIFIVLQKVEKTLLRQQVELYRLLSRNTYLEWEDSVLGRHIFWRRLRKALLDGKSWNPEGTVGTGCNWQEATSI
In series [13] the target is Toll-like receptor 3 (Homo sapiens) (UniProt O15455). Description: Agonist activity at human TLR3 expressed in HEK293 cells assessed as induction of NF-kappaB activity by measuring extracellular secreted alkaline phosphatase up to 250 uM by HEK-blue reporter gene assay. Type of series: functional, cell-based.
Sequence of Toll-like receptor 3 (Homo sapiens) (O15455 whole entry): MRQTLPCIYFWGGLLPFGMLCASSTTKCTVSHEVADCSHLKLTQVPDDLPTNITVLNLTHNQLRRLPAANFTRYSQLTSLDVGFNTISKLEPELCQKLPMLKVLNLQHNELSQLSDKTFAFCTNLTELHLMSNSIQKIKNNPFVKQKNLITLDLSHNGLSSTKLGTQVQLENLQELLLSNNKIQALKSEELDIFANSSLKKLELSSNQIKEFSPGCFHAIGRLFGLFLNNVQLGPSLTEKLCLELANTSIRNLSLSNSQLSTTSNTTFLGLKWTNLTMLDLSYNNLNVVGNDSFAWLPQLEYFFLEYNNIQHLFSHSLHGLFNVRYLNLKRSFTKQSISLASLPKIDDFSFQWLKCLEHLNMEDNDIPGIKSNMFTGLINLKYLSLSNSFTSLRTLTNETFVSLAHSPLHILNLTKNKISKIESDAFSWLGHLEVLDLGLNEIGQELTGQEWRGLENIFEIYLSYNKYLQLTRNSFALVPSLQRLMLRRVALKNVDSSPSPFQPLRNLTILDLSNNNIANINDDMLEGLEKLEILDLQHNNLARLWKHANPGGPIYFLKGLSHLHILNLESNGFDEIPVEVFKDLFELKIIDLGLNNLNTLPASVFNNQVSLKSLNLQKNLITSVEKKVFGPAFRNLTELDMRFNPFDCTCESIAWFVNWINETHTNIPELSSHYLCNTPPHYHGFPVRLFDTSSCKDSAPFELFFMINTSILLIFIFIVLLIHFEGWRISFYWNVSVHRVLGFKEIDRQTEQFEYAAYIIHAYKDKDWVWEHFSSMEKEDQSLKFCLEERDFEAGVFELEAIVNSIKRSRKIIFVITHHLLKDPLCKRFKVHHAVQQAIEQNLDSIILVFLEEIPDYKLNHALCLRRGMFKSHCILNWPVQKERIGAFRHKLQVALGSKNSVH

Sequence of Toll-like receptor 5 (Homo sapiens) (O60602 whole entry): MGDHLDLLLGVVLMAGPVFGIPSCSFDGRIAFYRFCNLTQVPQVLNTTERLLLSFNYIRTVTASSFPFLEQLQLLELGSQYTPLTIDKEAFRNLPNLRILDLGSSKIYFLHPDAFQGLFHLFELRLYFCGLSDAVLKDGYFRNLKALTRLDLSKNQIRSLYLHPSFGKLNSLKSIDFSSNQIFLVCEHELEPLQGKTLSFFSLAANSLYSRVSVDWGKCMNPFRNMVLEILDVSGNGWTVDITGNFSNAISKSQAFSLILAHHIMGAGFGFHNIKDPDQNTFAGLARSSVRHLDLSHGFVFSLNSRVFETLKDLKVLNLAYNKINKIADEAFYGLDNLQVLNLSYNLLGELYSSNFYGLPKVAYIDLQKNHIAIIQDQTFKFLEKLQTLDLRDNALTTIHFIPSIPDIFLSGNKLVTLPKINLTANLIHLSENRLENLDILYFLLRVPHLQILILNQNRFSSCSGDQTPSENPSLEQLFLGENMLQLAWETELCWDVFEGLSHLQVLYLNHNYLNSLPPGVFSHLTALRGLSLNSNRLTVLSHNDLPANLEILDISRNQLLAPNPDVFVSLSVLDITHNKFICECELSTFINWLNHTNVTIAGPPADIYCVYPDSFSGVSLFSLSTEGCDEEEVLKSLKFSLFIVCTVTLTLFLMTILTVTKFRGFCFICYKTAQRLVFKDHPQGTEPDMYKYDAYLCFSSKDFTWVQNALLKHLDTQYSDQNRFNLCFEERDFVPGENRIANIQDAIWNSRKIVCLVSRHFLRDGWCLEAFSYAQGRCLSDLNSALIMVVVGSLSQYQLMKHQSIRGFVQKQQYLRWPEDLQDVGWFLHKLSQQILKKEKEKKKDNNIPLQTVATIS

On to `CCCc1nc2c(N)nc3ccccc3c2s1`, for which the Activity result in series [1] was “Toxic”.

As usually defined, the pEC50 is the negative decadic logarithm of the EC50, by convention in mol/L. Regarding `CCCCCNc1oc2c(C)ncc(CO)c2c1Nc1ccccn1`, the Activity result in series [2] was “Non-toxic”; in series [4] it was “Toxic”; in [1], “Non-toxic”; in series [5], “Dose-dependent effect”; in series [7] it was “Toxic”. In addition, the outcome in series [3] was Active. The pEC50 in series [6] was 5.24.

Turning to `Cc1ncc(CO)c2c(Nc3ccccn3)c(NC[Si](C)(C)C)oc12`, the Activity result was “Non-toxic” in [2]; “Toxic” in series [4]; “Non-toxic” in [1]; “Dose-dependent effect” in [5]; “Toxic” in series [7]. For the same molecule, the pEC50 in series [6] was 5.30.

Take `CCCCNc1oc2c(C)ncc(CO)c2c1Nc1ccccn1`: the Activity entry in [1] was “Non-toxic”; in [5], “Dose-dependent effect”. Besides, the pEC50 in series [6] is 5.03.

For `Cc1ncc(CO)c2c(Nc3ccccn3)c(NCc3ccccc3)oc12`, the Activity entry in series [1] is “Non-toxic”; in [5] it was “Dose-dependent effect”. Further, the pEC50 in series [6] was 5.31.

For the molecule `c1ccn2c(NC3CCCCC3)c(-c3ccncc3)nc2c1`, the result in [8], in series [9], in series [10], in [11], in series [12] and in series [13] was inactive.

The record behind these values is ChEMBL document CHEMBL2176888, “Structure-activity relationships in human Toll-like receptor 8-active 2,3-diamino-furo[2,3-c]pyridines” (J Med Chem, 2012).
